# From US9102636B2, “Analgesic compounds, compositions, and uses thereof” (Galleon Pharmaceuticals, Inc., priority 2010, dated 2015)
# “And” between values parts separate entries of the source, which are not always exact repeats. Identical values can stand only once. Counter-ions that a name gives are not always drawn.
# Columns and labels:
# [1] = system: Carrageenan-induced thermal hyperalgesia; assay: Carrageenan-induced thermal hyperalgesia (Hargreaves); format: in vivo, rat; conditions: indomethacin 30 mg/kg p.o. prior to carrageenan; for Paw withdrawal latency: cut-off 40 s, individual animals
# Experimental: (§1) The effect of Compound 2 in the rat carrageenan model of acute inflammatory pain was evaluated. The intraplantar carrageenan model of acute inflammatory pain in the rat results in behaviors similar to that observed in patients and has been widely used to assess novel pharmacological treatments (Whiteside et al., 2005, J. Pharmacol. Exp. Ther. 314:1234-1240). The objective of this study was to evaluate the ability of Compound 2 to reverse or prevent development of thermal hyperalgesia and edema in the rat carrageenan model of acute inflammatory pain. The positive control was indomethacin (Sigma, St. Louis), and the negative control was vehicle (0.5% methyl cellulose). […] The Hargreaves apparatus was obtained from Ugo Basile, Italy, and the lamba-carrageenan was obtained from Sigma, St. Louis. For this assay, paw withdrawal latency to a thermal stimulus was assessed using a radiant heat source (Ugo Basile, Italy) aimed at the plantar surface of the left hind paw (Hargreaves test). […] Paw volume was measured by displacement of water and assuming a tissue density equal to that of water. Baseline latencies were taken prior to carrageenan administration and re-assessed 4 h later. Compound 2 or vehicle was administered (10 and 30 mg/kg, p.o.) 3 hrs after carrageenan (curative) and behavior assessed 1 hr later. […] Indomethacin (positive control, 30 mg/kg p.o.) was administered prior to carrageenan and behavior assessed 4 hrs post-carrageenan. […] After induction of anesthesia, the injection site was prepared in a sterile manner and 50 μl of a 2% Jamba-carrageenan was injected. After injection, animals were weighed and allowed to recover before being returned to their home cages. Statistical significance was determined on untransformed data using a two-way analysis of variance (Graphpad Prism, NC). Significant main effects were analyzed further by subsequent Bonferronni post-hoc test. The level of significance was set at p<0.05. Data are shown as mean±S.E.M. (with an asterisk to denote significance as compared to vehicle treated controls).
# [2] = system: Carrageenan-induced edema; assay: Carrageenan-induced edema (paw volume); format: in vivo, rat; conditions: indomethacin 30 mg/kg p.o. prior to carrageenan; for Paw volume: individual animals
# Experimental: as §1, with “later.” for “later. Compound 2 or vehicle was administered (10 and 30 mg/kg, p.o.) 3 hrs after carrageenan (curative) and behavior assessed 1 hr later.”
smiles,measurement,setting,value
"O=C(O)[C@@H]1CSC(Nc2ccc(F)cc2O)=N1 (as salt: HCl) [Compound 6, (R)-2-(4-Fluoro-2-hydroxyphenylamino)-thiazoline-4-carboxylic acid]",melting point,,109 to 111 °C
"Cc1c(Cl)cc(NC2=N[C@H](C(=O)O)CS2)c(O)c1Cl (as salt: HCl) [Compound 8, (R)-2-(3,5-Dichloro-2-hydroxy-4-methylphenylamino)-thiazoline-4-carboxylic acid]",melting point,,205 to 207 °C
"COC(=O)c1ccc(NC2=N[C@H](C(=O)O)CS2)c(O)c1 (as salt: HCl) [Compound 12, (R)-2-(2-Hydroxy-4-methoxycarbonylphenylamino)-thiazoline-4-carboxylic acid]",melting point,,118 to 120 °C
COc1ccc2c(c1)c(CC(=O)O)c(C)n2C(=O)c1ccc(Cl)cc1 [Indo],Paw withdrawal latency,[1]; 4 hrs post-carrageenan (second line),17 s and 35 s and 26 s and 28 s and 40 s (2×)
same,Paw withdrawal latency,[1]; baseline prior to carrageenan (first line),20 s and 40 s and 17 s and 32 s and 23 s and 24 s
same,Paw volume,[2]; 4 hr post-drug,2.5 mL and 2.4 mL and 2.3 mL (2×) and 2.2 mL and 1.8 mL
same,Paw volume,[2]; Pre-Cg,1.7 mL (2×) and 1.5 mL (2×) and 1.8 mL and 1.4 mL
"COc1ccc2c(c1)c(CC(=O)O)c(C)n2C(=O)c1ccc(Cl)cc1 [indomethacin, reference compound]","carrageenan-induced thermal hyperalgesia, positive control preemptive","[1]; rat, 4 hrs post-carrageenan",statistically significant prevention
same,"carrageenan-induced edema, positive control preemptive","[2]; rat, 4 hrs post-carrageenan",statistically significant prevention
